IC50, inhibition in vivo and melting point data for twelve molecules are collected here from US20100004459A1, “2-PHENYLNICOTINIC ACID DERIVATIVE” (NIPPON ZOKI PHARMACEUTICAL CO., LTD., priority 2006, published 2010).

The target of one data set is T1, xanthine oxidase (Bos taurus, UniProt P80457).
T1 construct: derived from milk; manufactured by Sigma; purchased Sigma; host or cells: milk (natural source)
The experiment in a line: Test for xanthine oxidase inhibitory activity. The class given is biochemical. Particulars: xanthine oxidase derived from milk (Sigma); substrate xanthine; uric acid production at OD 292 nm, 37° C. Here is the method: Evaluation of inhibitory activity of the present invention to xanthine oxidase was conducted using xanthine as a substrate by measuring the amount of uric acid produced by xanthine oxidase which is an oxidizing enzyme therefor. Thus, xanthine oxidase (0.01 unit/L, 20 μL/well; derived from milk; manufactured by Sigma), diethylenetriamine pentaacetate (0.01 mol/L, 20 μL/well), phosphate buffer (20 μL/well), distilled water (100 μL/well) and a diluted solution (20 μL/well) of a test substance were mixed in a 96-well quartz microplate. After preincubating for 5 minutes in a microplate spectrophotometer warmed at 37° C., xanthine (1 mmol/L, 20 μL/well) was added. The changes with elapse of time in OD 292 nm based on the production of uric acid was measured using a microplate spectrophotometer warmed at 37° C. whereby the initial reaction velocity was measured. Xanthine oxidase inhibitory activity was calculated by the following formula and concentration of the test substance for 50% suppression (IC50 value) was calculated.
Inhibition Rate(%)={[(Initial Reaction Velocity of the Reaction Control)-(Initial Reaction Velocity upon Addition of Test Substance)]/[Initial Reaction Velocity of the Reaction Control]}×100

For data set [1], the system named is model rats of fructose-loaded hypertriglyceridemia. As to the kind of experiment: Model rats of fructose-loaded hypertriglyceridemia: action for lowering of triglyceride in serum. Format: in vivo. Particulars: Rattus norvegicus, po; male SD rats, 75% fructose solution for three days; 100 mg/kg orally once daily; serum 2 hours after final administration; read-out: Inhibition Rate (%) Action for lowering of triglyceride. Here is the method: (§1) The test was conducted according to a method of Kusama, et al. (Folia Pharmacologica Japonica, volume 92, pages 175 to 180, 1988). Thus, male rats of SD strain of 6 to 7 weeks age were made in free access to a 75% (w/v) D(−)-fructose solution for three days. During the period of fructose ingestion, a test substance (100 mg/kg) was suspended in 1% methyl cellulose and orally administered once daily. After 2 hours from the final administration, about 500 μL per rat of blood was collected using a hematocrit capillary from orbital venous plexus under anesthetization with ether and centrifuged (3000 rpm at 4° C. for 20 minutes) whereupon the serum was prepared.
(1) Action for Lowering of Triglyceride in Serum
The triglyceride (TG) in the serum was measured by a Triglyceride E-Test Wako (manufactured by Wako Pure Chemical Industries, Ltd.) and each TG lowering rate was determined by the following formula.
TG Lowering Rate(%)={[(TG Value of Control Animal)−(TG Value of Animal Administered with Test Substance)]/[(TG Value of Control Animal)-(TG Value of Untreated Animal)]}×100

Data set [2] shares this test system. The experiment in a line: Model rats of fructose-loaded hypertriglyceridemia: action for lowering of uric acid in serum. The class given is in vivo. The note with it: Rattus norvegicus, po; male SD rats, 75% fructose solution for three days; 100 mg/kg orally once daily; serum 2 hours after final administration; read-out: Inhibition Rate (%) Action for lowering of uric acid. The protocol: as §1
(2) Action for Lowering of Uric Acid in Serum
Uric acid value in the serum was measured by a Uric acid C-Test Wako (manufactured by Wako Pure Chemical Industries, Ltd.) using the above serum and each uric acid lowering rate was determined by the following formula.
Uric Acid Lowering Rate(%)={[(Uric Acid Value of Control Animal)-(Uric Acid Value of Animals Administered with Test Substance)]/[Uric Acid Value of Control Animal]}×100

T1 sequence (P80457 whole entry): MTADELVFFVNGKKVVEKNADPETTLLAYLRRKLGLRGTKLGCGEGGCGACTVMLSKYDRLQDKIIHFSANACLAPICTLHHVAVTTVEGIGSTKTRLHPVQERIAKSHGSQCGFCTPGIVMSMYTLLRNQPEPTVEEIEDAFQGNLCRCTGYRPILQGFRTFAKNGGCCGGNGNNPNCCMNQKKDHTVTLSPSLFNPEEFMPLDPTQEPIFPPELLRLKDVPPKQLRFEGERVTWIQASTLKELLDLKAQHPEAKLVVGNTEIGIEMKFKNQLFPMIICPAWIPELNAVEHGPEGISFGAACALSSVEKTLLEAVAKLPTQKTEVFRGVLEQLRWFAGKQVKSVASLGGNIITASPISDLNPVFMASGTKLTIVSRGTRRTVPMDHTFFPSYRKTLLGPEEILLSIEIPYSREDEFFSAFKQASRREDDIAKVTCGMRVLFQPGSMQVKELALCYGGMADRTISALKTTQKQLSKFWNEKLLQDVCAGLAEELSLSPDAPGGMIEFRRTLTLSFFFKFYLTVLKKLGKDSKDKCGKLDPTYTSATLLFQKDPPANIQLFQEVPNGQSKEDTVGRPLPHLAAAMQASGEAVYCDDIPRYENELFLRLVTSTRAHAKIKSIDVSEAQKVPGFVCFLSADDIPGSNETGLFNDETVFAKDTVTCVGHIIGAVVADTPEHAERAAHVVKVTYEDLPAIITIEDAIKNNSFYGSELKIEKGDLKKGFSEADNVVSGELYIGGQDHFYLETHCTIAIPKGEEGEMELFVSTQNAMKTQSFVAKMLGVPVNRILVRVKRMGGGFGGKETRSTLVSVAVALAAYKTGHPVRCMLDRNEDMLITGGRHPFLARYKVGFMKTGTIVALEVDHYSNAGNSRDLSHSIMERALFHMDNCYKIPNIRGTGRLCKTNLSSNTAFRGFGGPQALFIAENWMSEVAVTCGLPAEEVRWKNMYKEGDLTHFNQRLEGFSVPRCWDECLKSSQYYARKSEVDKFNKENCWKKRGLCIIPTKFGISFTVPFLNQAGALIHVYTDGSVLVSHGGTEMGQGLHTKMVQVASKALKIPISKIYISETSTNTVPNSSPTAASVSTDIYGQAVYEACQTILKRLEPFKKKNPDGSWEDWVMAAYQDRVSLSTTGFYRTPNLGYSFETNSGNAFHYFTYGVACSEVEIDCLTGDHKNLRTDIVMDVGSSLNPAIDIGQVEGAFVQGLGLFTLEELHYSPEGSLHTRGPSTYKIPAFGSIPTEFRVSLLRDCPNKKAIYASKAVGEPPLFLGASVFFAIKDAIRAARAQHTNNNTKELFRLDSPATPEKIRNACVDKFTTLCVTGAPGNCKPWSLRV

In turn, `CCC(C)(C)COc1ccc(-c2ncccc2C(=O)O)cc1C#N` [Example 72, 2-[3-Cyano-4-(2,2-dimethylbutoxy)phenyl]nicotinic acid] came in with a melting point of 166 to 167 °C. Moreover, on xanthine oxidase, the IC50 is 28 nM. In data set [1], the inhibition in vivo at 100 mg/kg came to 34.2%. Moreover, the inhibition in vivo at 100 mg/kg in data set [2] is 48.5%.

`CC(C)(C)COc1ccc(-c2ncccc2C(=O)O)cc1C#N` [Example 83, 2-[3-Cyano-4-(2,2-dimethylpropoxy)phenyl]nicotinic acid] came in with a melting point of 231 to 232 °C. Half-maximal inhibition on xanthine oxidase (IC50) was put at 42 nM. The inhibition in vivo at 100 mg/kg in data set [1] was 112%. The inhibition in vivo at 100 mg/kg in data set [2] amounted to 56.6%.

For `Cc1ccccc1CCOc1ccc(-c2ncccc2C(=O)O)cc1C#N` [Example 102, 2-[3-Cyano-4-(2-methylphenethyloxy)-phenyl]nicotinic acid], 53 nM corresponded to half-maximal inhibition against xanthine oxidase (IC50). For the same molecule, the values for the inhibition in vivo at 100 mg/kg in data set [1] and in data set [2] were 28.4% and 25.2%, respectively.

As to `CC(C)(COc1ccc(-c2ncccc2C(=O)O)cc1C#N)c1ccccc1` [Example 78, 2-[3-Cyano-4-(2-methyl-2-phenylpropoxy)phenyl]nicotinic acid], the melting point lay within 221 to 222 °C. Further, in data set [1], the inhibition in vivo at 100 mg/kg is 21.6%. For the same molecule, the inhibition in vivo at 100 mg/kg in data set [2] came out at 19.4%.

As to `N#Cc1cc(-c2ncccc2C(=O)O)ccc1OCC1CCCC1` [Example 75, 2-(3-Cyano-4-cyclopentylmethoxyphenyl)nicotinic acid], the melting point lay within 227 to 228 °C. Moreover, the half-inhibitory concentration (IC50) against xanthine oxidase is 24 nM. Further, the inhibition in vivo at 100 mg/kg in data set [1] is 25.7%. The inhibition in vivo at 100 mg/kg in data set [2] came to 49.5%.

As for `N#Cc1cc(-c2ncccc2C(=O)O)ccc1OCCc1ccccc1Cl` [Example 100, 2-{4-[2-(2-Chlorophenyl)ethoxy]-3-cyanophenyl}nicotinic acid], the concentration for half-maximal inhibition (IC50) at xanthine oxidase came out at 65 nM. Further, the inhibition in vivo at 100 mg/kg in data set [1] came to 40.8%; in data set [2], 58.2%.

In turn, `CC(C)(C)CCOc1ccc(-c2ncccc2C(=O)O)cc1C#N` [Example 84, 2-[3-Cyano-4-(3,3-dimethylbutoxy)phenyl]nicotinic acid] registered a melting point of 206 to 207 °C. At xanthine oxidase, this molecule displayed an IC50 of 18 nM. In data set [1], the inhibition in vivo at 100 mg/kg was found to be 41.4%. Also, in data set [2], the inhibition in vivo at 100 mg/kg turned out to be 69.2%.

In the case of `N#Cc1cc(-c2ncccc2C(=O)O)ccc1OCCc1ccccc1C(F)(F)F` [Example 56], the melting point lay within 187 to 188 °C. The same molecule showed an IC50 against xanthine oxidase of 36 nM. Besides, in data set [1], the inhibition in vivo at 100 mg/kg came out at 72.1%. For the same molecule, the inhibition in vivo at 100 mg/kg in data set [2] is 38.7%.

In the case of `CC1(COc2ccc(-c3ncccc3C(=O)O)cc2C#N)CCCCC1` [Example 77, 2-[3-Cyano-4-(1-methylcyclohexylmethoxy)phenyl]nicotinic acid], the melting point lay in the range of 100 to 101 °C. At xanthine oxidase, the IC50 was determined as 24 nM. For the same molecule, in data set [1], the inhibition in vivo at 100 mg/kg stood at 39.6%. The inhibition in vivo at 100 mg/kg in data set [2] is 27.8%.

Take `N#Cc1cc(-c2ncccc2C(=O)O)ccc1OCCCCc1ccccc1` [Example 62, 2-[3-Cyano-4-(4-phenylbutoxy)phenyl]nicotinic acid]: the melting point lay in the range of 163 to 164 °C. The molecule also gave an IC50 on xanthine oxidase of 27 nM. In addition, the inhibition in vivo at 100 mg/kg in data set [1] stood at 71.1%. In addition, the inhibition in vivo at 100 mg/kg in data set [2] worked out at 43.6%.

Molecule `N#Cc1cc(-c2ncccc2C(=O)O)ccc1OCCCc1ccc(C(F)(F)F)cc1` [Example 59, 2-{3-Cyano-4-[3-(4-trifluoromethylphenyl)propoxy]phenyl}nicotinate] showed a melting point of 183 to 184 °C. Besides, the IC50 on xanthine oxidase stood at 42 nM. Further, in data set [1], the inhibition in vivo at 100 mg/kg was 53.2%. For the same molecule, the inhibition in vivo at 100 mg/kg in data set [2] came out at 29.3%.

Consider `N#Cc1cc(-c2ncccc2C(=O)O)ccc1OCC1CCCCC1` [Example 47, 2-(3-Cyano-4-cyclohexylmethoxyphenyl)nicotinic acid], for which the melting point fell in the range of 220 to 221 °C. Besides, on xanthine oxidase, the IC50 came to 24 nM. For the same molecule, the inhibition in vivo at 100 mg/kg in data set [1] was 46.3%. Also, in data set [2], the inhibition in vivo at 100 mg/kg amounted to 52.6%.

In general, IC50 refers to the concentration that inhibits the measured activity by half. Low values mean inhibition by little substance, high ones a need for much substance. A word on the melting point: it is the temperature, or range, at which the solid turns liquid.
